Measurements reported in article PMC6160999, “Pharmacokinetics, Tissue Distribution and Excretion of a Novel Diuretic (PU-48) in Rats” (Pharmaceutics, 2018).
Like-named read-outs stand apart in the source and are kept apart here.

Experiments:
[1] = Tissue distribution after single oral PU-48 SNEDDS; assay type: in vivo; details: rat, oral PU-48 SNEDDS 12 mg/kg
Description: Internal standard (IS, 25 μL) was added to 50 μL plasma, urine, or bile sample in a clean tube, placed into a water bath at 37 °C, and dried under a gentle stream of nitrogen gas, followed by the addition of 0.5 mL of ethyl acetate for liquid-liquid extraction. The mixture was shaken by a vortex mixer for 3 min, and then centrifuged at 8000 rpm (4200× g) for 10 min at 4 °C. After centrifugation, the upper organic phase was transferred into a clean centrifuge tube and then dried it again. The combined upper organic phases were evaporated to dryness at 37 °C under a gentle stream of nitrogen gas. The residue was reconstituted with 50 μL acetonitrile and then centrifuged at 13,000 rpm (12,000× g) for 10 min at 4 °C, the upper liquid was transferred into sample vials. Finally, 5 μL aliquots were injected into the LC–MS/MS system to analyze. Each tissue samples were homogenized in normal saline (0.9% NaCl, 1:3, w/v), and then centrifuged at 10,000× g for 10 min to get the supernatant. Other steps were the same as plasma sample preparation.
Thirty rats were divided randomly into five groups and the rats were given single orally administration of PU-48 (12 mg/kg, 1.2 mg/mL in the SNEDDS formulation). […] After the final time point, the rats were sacrificed and thirteen tissues (liver, spleen, lung, kidney, heart, muscle, colon, intestine, stomach, bladder, testicle, adipose, brain) were collected. Tissues samples were rinsed with ice-cold 0.9% normal saline and blotted dry with filter paper. All the samples were weighted and stored at −20 °C until analysis.

plasma protein = experiment: Plasma protein binding by equilibrium dialysis, human plasma; assay type: in vitro ADME; details: for Concentration in Buffer (post-dialysis) / Concentration in Plasma (post-dialysis) / Protein-Binding Ratio: human plasma, n=5; for Concentration in Buffer (post-dialysis) / Concentration in Plasma (post-dialysis): 37 °C 24 h
Description: The concentration of PU-48 prototype in biological sample (feces and plasma protein binding analysis) was determined using a validated high-performance liquid chromatographic (HPLC) method our preliminary experiment (See Supplementary Materials HPLC Analysis and Method Validation). Briefly, the quantitative analysis of PU-48 was performed using a HPLC consistent of model 510 pump with a model 2487 ultraviolet detector, a model Rheodyne 7725 injector, and a column oven. The analytical conditions were as follows—The detection wavelength—293 nm; analytical column—a reversed-phase Acclaim C18 (4.6 mm × 250 mm, 5.0 µm, Dionex, Sunnyvale, CA, USA); column temperature—25 °C; mobile phase—acetonitrile—distilled water at a ratio of 60:40 (v/v); flow rate—1 mL/min. In this study, the methods for the feces samples were evaluated for specificity, linearity, precision, accuracy, and recovery (See Supplementary Materials Tables S4–S6).
The binding ratio of PU-48 to plasma protein was determined by equilibrium dialysis. A volume of 1 mL of plasma with PU-48 (0.25, 1 and 4 µg/mL) was added to a semi-permeable membrane bag (plasma chamber), the bag was place into the other clean tube with 9 mL PBS (buffer chamber). The equilibrium dialysis was performed at 37 °C for 24 h. At the end of dialysis, 500 μL each of post-dialysis samples from the plasma and the buffer chambers were collected and analyzed by HPLC method. The plasma protein binding of PU-48 was calculated from the concentration of PU-48 in PBS (free concentration) and in plasma (free + bound) according to equation: Bound (%) = (Concplasma chamber − Concbuffer chamber)/Concplasma chamber × 100%.

[2] = system: IMCD urea transporter UT-As; design: method as in PMID 25298345, PMID 12133842, PMID 12965892, PMID 23597791, PMID 24210002; details: rodents, compared to the other thienoquinolin lead compounds; cited from earlier work
[3] = bladder, read-out: Concentration of PU-48 in bladder
[4] = brain, read-out: Concentration of PU-48 in brain
[5] = colon, read-out: Concentration of PU-48 in colon
[6] = fat, read-out: Concentration of PU-48 in fat
[7] = heart, read-out: Concentration of PU-48 in heart
[8] = intestine, read-out: Concentration of PU-48 in intestine
[9] = kidney, read-out: Concentration of PU-48 in kidney
[10] = liver, read-out: Concentration of PU-48 in liver
[11] = lung, read-out: Concentration of PU-48 in lung
[12] = male, testicle, read-out: Concentration of PU-48 in testicle
[13] = muscle, read-out: Concentration of PU-48 in muscle
[14] = plasma, read-out: Concentration of PU-48 in plasma
[15] = spleen, read-out: Concentration of PU-48 in spleen
[16] = stomach, read-out: Concentration of PU-48 in stomach

Molecule `COC(=O)c1sc2nc3ccc(OC)cc3cc2c1N` [PU-48, Methyl 3-amino-6-methoxythieno [2,3-b] quinoline-2-carboxylate] has a concentration at 0.5 h [1, 3] of 258 ± 94.2 ng/g, a concentration at 1 h [1, 3] of 368 ± 124 ng/g and a concentration at 6 h [1, 3] of 43.4 ± 10.7 ng/g. For the same molecule, the concentration at 12 h [1, 3] was 6.1 ± 3.2 ng/g, the concentration at 24 h [1, 3] was 8.6 ± 6.5 ng/g and the concentration at 0.5 h [1, 4] was 111 ± 23.3 ng/g. It also gave a concentration at 1 h [1, 4] of 68.1 ± 52.7 ng/g, a concentration at 6 h [1, 4] of 15.7 ± 19.3 ng/g and a concentration at 12 h [1, 4] of 1.7 ± 1.5 ng/g. The concentration at 0.5 h [1, 5] was 90.4 ± 30 ng/g, the concentration at 1 h [1, 5] was 172 ± 89.5 ng/g and the concentration at 6 h [1, 5] was 35.2 ± 14.7 ng/g. It also gave a concentration at 12 h [1, 5] of 28.6 ± 21.7 ng/g, a concentration at 24 h [1, 5] of 14.1 ± 5.6 ng/g and a concentration at 0.5 h [1, 6] of 481 ± 398 ng/g. The concentration at 1 h [1, 6] was 99.3 ± 26.9 ng/g, the concentration at 6 h [1, 6] was 52.3 ± 43.2 ng/g and the concentration at 12 h [1, 6] was 2.7 ± 1.9 ng/g. For the same molecule, the concentration at 24 h [1, 6] was 0.7 ± 0.6 ng/g, the concentration at 0.5 h [1, 7] was 251 ± 78.4 ng/g and the concentration at 1 h [1, 7] was 125 ± 31 ng/g. For the same molecule, the concentration at 6 h [1, 7] was 11.3 ± 11.2 ng/g, the concentration at 24 h [1, 7] was 0.5 ng/g and the concentration at 0.5 h [1, 8] was 655 ± 89.3 ng/g. For the same molecule, the concentration at 1 h [1, 8] was 777 ± 277 ng/g, the concentration at 6 h [1, 8] was 209 ± 166 ng/g and the concentration at 12 h [1, 8] was 45.4 ± 18.9 ng/g. For the same molecule, the concentration at 24 h [1, 8] was 9 ± 4.7 ng/g, the concentration at 0.5 h [1, 9] was 416 ± 138 ng/g and the concentration at 1 h [1, 9] was 297 ± 241 ng/g. It also gave a concentration at 6 h [1, 9] of 44.5 ± 33.9 ng/g, a concentration at 12 h [1, 9] of 4.7 ± 1.1 ng/g and a concentration at 24 h [1, 9] of 5.3 ± 3.4 ng/g. The concentration at 0.5 h [1, 10] was 622 ± 183 ng/g, the concentration at 1 h [1, 10] was 534 ± 228 ng/g and the concentration at 6 h [1, 10] was 42.7 ± 27.3 ng/g. The concentration at 12 h [1, 10] was 13.4 ± 3.1 ng/g, the concentration at 24 h [1, 10] was 20.4 ± 12.2 ng/g and the concentration at 0.5 h [1, 11] was 231 ± 79.3 ng/g. For the same molecule, the concentration at 1 h [1, 11] was 174 ± 91.4 ng/g, the concentration at 6 h [1, 11] was 7.2 ± 5.7 ng/g and the concentration at 12 h [1, 11] was 0.9 ± 0.1 ng/g. The concentration at 24 h [1, 11] was 1.3 ± 0.9 ng/g, the concentration at 0.5 h [1, 12] was 34.2 ± 21.2 ng/g and the concentration at 1 h [1, 12] was 51.7 ± 24.4 ng/g. For the same molecule, the concentration at 6 h [1, 12] was 9.5 ± 8.5 ng/g, the concentration at 12 h [1, 12] was 1.5 ± 0.7 ng/g and the concentration at 24 h [1, 12] was 1.4 ± 1.1 ng/g. The concentration at 0.5 h [1, 13] was 39.8 ± 28.6 ng/g, the concentration at 1 h [1, 13] was 52 ± 25.5 ng/g and the concentration at 6 h [1, 13] was 4.5 ± 3.5 ng/g. The concentration at 12 h [1, 13] was 2 ± 1.9 ng/g, the concentration at 24 h [1, 13] was 1.4 ± 1.5 ng/g and the concentration at 0.5 h [1, 14] was 277 ± 42.4 ng/mL. The concentration at 1 h [1, 14] was 119 ± 63.5 ng/mL, the concentration at 6 h [1, 14] was 16.8 ± 26.4 ng/mL and the concentration at 12 h [1, 14] was 2.4 ± 1.7 ng/mL. For the same molecule, the concentration at 24 h [1, 14] was 0.3 ± 0.1 ng/mL, the “Peak concentration of PU-48 in brain” value [1] was 111.1 ± 23.3 ng/mL and the “Blood brain barrier crossing” value ([1]; inferred from brain concentration) was “could cross the blood brain barrier (BBB)”. For the same molecule, the Tmax ([1]; thirteen tissues, read-out: Peak time (Tmax) of PU-48 in analyzed tissues) was 30 to 60 min, the concentration at 0.5 h [1, 15] was 266 ± 120 ng/g and the concentration at 1 h [1, 15] was 161 ± 64 ng/g. The concentration at 6 h [1, 15] was 15.2 ± 12.9 ng/g, the concentration at 12 h [1, 15] was 3.8 ± 5.7 ng/g and the concentration at 24 h [1, 15] was 9.9 ± 12 ng/g. For the same molecule, the concentration at 0.5 h [1, 16] was 887 ± 235 ng/g, the concentration at 1 h [1, 16] was 2020 ± 822 ng/g and the concentration at 6 h [1, 16] was 509 ± 160 ng/g. For the same molecule, the concentration at 12 h [1, 16] was 104 ± 28.4 ng/g, the concentration at 24 h [1, 16] was 7 ± 3.1 ng/g and the concentration at 24 h ([1]; tissues except liver and colon, read-out: Concentrations of PU-48 in tissues except liver and colon) was < 10 ng/g. The “Concentration in Buffer (post-dialysis)” value (plasma protein; added 0.25 µg/mL) was 12 ± 3 ng/mL, the “Concentration in Plasma (post-dialysis)” value (plasma protein; added 0.25 µg/mL) was 146 ± 8 ng/mL and the “Protein-Binding Ratio” value (plasma protein; added 0.25 µg/mL) was 91.60 ± 1.57%. The “Concentration in Buffer (post-dialysis)” value (plasma protein; added 1 µg/mL) was 52 ± 3 ng/mL, the “Concentration in Plasma (post-dialysis)” value (plasma protein; added 1 µg/mL) was 611 ± 27 ng/mL and the “Protein-Binding Ratio” value (plasma protein; added 1 µg/mL) was 91.48 ± 0.64%. The “Concentration in Buffer (post-dialysis)” value (plasma protein; added 4 µg/mL) was 231 ± 29 ng/mL, the “Concentration in Plasma (post-dialysis)” value (plasma protein; added 4 µg/mL) was 2290 ± 93 ng/mL and the “Protein-Binding Ratio” value (plasma protein; added 4 µg/mL) was 89.90 ± 1.50%. For the same molecule, the fraction unbound at 24 h (plasma protein; plasma, human, overall statement) was < 0.1 and the “Selective inhibition towards IMCD urea transporter UT-As” value [2] was “higher selective inhibition”.
